Measured values reported in patent publication US20210101905A1, “Development of Imaging and Therapeutic Glucose Analogues for Sodium Dependent Glucose Transporters” (Llnited States Government as represented by the Department …, priority 2019, published 2021).

Tests used:
[1] = test system: metastatic prostate cancer; settings: men with metastatic prostate cancer, phase III; cited from earlier work
[2] = rat, in vivo; cited from earlier work
SGLTs and GLUTs = settings: prior work; cited from earlier work
PC-3 = experiment: 6FGA uptake in PC-3 cells, with and without transporter inhibitors or sodium; type: cell-based, human; settings: PC3 cell line
Protocol: See FIG. 2A-D. Its transport properties were evaluated in two human metastatic cancer cell lines: triple negative breast cancer MDA-MB-231 and human prostate cancer (PC-3). […] See also FIG. 5A, FIG. 5B, and FIG. 6.
The assays are performed from a modified protocol as we have done previously, and from flow cytometry formats (Zou ry al. (2005) J Biochem Biophys Methods 64:207-15; Landau et al. (2007) American journal of physiology Endocrinology and metabolism 293:E237-45). In brief, cells are grown to confluence using recommended growth media in 96-well plates. […] The cells are detached with trypsin and resuspended in PBS. The cells are analysed using flow cytometry with the Cy5.5 filter set (excitation 685 nm, exmission 710 nm) gated for 250,000 counts.

Compound	transport by SGLTs / GLUTs (SGLTs and GLUTs)	effect of inhibitor on 6FGA uptake (PC-3)	further results
[Cl][223Ra][Cl] [Xofigo, ^223RaCl2]	–	–	adverse events [1]: low rates of myelosuppression and few adverse events; overall survival [1]: improve overall survival
O=C[C@H](O)[C@@H](O)[C@H](O)[C@H](O)C[18F] [[18F]6FDG, 18F-labelled 6-fluoro-6-deoxy-D-glucose]	transported by SGLTs and GLUTs	–	activity in the bladder [2]: no activity was evident in the bladder; renal handling [2]: reabsorbed in proximal tubules of kidneys
OC[C@H]1OC(O)[C@H]([18F])[C@@H](O)[C@@H]1O (stereo partly drawn) [[^18F]FDG, ^18F-labeled 2-fluoro-2-deoxy-D-glucose]	poorly transported by SGLTs	–	–
C=C1[C@@H](C)[C@H]2[C@H](Cc3ccccc3)NC(=O)[C@]23OC(=O)/C=C/[C@H](O)CCC[C@@H](C)C/C=C/[C@H]3[C@@H]1O [cytochalasin B]	–	not blocked	–
O=C(CCc1ccc(O)cc1)c1c(O)cc(O)cc1O[C@@H]1O[C@H](CO)[C@@H](O)[C@H](O)[C@H]1O [phlorizin]	–	blocked	–
